Results from US20140206708A1, “COMPOSITION FOR OPHTHALMIC ADMINISTRATION” (Rigel Pharmaceuticals, Inc., priority 2013, published 2014).
Values after ≈ are worked out from the molar mass of the structure shown.

Legend:
Aqueous solubility = assay type: physicochemical
[1] = solution pH 8, stored at room temperature for approximately 16 months

solubility (Aqueous solubility; water (aqueous), room temperature) [µg/mL]	SMILES	aqueous solubility compared with free acid form and compound II (Aqueous solubility)	solubility in water (Aqueous solubility; in water)	compound I choline salt converted to compound II [1]
–	C#CCOc1ccc(Nc2nc(Nc3ccc(C)c(S(=O)(=O)NC(=O)CC)c3)ncc2F)cc1.C[N+](C)(C)CCO [VII, 5-Fluoro-N2-[4-methyl-3-(N-propionylaminosulfonyl)phenyl]-N4-[4-(2-propynyloxy)phenyl]-2,4-pyrimidinediamine Choline Salt]	significantly higher aqueous solubility than both its free acid form and compound II	about 9.1 mg/mL	about 5%
~0.9 (≈ 2.11 µM)	C#CCOc1ccc(Nc2nc(Nc3ccc(C)c(S(N)(=O)=O)c3)ncc2F)cc1 [Compound II, N2-(3-aminosulfonyl-4-methylphenyl)-5-fluoro-N4-[4-(prop-2-ynyloxy)phenyl]-2,4-pyrimidinediamine]	–	–	–
